Results as given in US20230165251A1, “SUBSTITUTED TOLYL FUNGICIDES AND THEIR MIXTURES” (FMC Corporation, priority 2020, published 2023).

Key:
[1] = system: Puccinia recondita f. sp. tritici; assay: Test B: preventive spray on wheat seedlings, wheat leaf rust; type: in vivo; conditions: for pest or weed control at 10 ppm: Puccinia recondita, 192 h, read-out: Test B disease control rating
Source text: (§1) General protocol for preparing test suspensions for Tests A-F: the test compounds were first dissolved in acetone in an amount equal to 3% of the final volume and then suspended at the desired concentration (in ppm) in acetone and purified water (50/50 mix by volume) containing 250 ppm of the surfactant PEG400 (polyhydric alcohol esters). The resulting test suspensions were then used in Tests A-F.
The test solution was sprayed to the point of run-off on wheat seedlings. The following day the seedlings were inoculated with a spore suspension of Puccinia recondita f. sp. tritici (the causal agent of wheat leaf rust) and incubated in a saturated atmosphere at 20° C. for 24 h, and then moved to a growth chamber at 20° C. for 7 days, after which time disease ratings were made.
(§2) A rating of 100 indicates 100% disease control and a rating of 0 indicates no disease control (relative to the controls). A dash (-) indicates the compound was not tested.

Phakopsora pachyrhizi = assay: Test D: preventive spray on soybean seedlings, Asian soybean rust; type: in vivo; conditions: Rate 10 ppm; for pest or weed control at 10 ppm: Phakopsora pachyrhizi, 216 h, read-out: Test D disease control rating
Source text: as §1
The test solution was sprayed to the point of run-off on soybean seedlings. The following day the seedlings were inoculated with a spore suspension of Phakopsora pachyrhizi (the causal agent of Asian soybean rust) and incubated in a saturated atmosphere at 22° C. for 24 h and then moved to a growth chamber at 22° C. for 8 days, after which time visual disease ratings were made.
as §2

Compound	pest or weed control at 10 ppm ([1]; Rate 10 ppm)	pest or weed control at 10 ppm (Phakopsora pachyrhizi)	Test B disease control rating ([1]; Rate 10 ppm)	Test D disease control rating (Phakopsora pachyrhizi)	Test B disease control rating ([1]; Rate 2 ppm)
CO/N=C(\C)c1cc(F)c(-n2ccc(-c3ccc(C)c(CNC(=O)OC)c3)n2)c(F)c1 [Compound 83, methyl (E)-N-[[5-[1-[2,6-difluoro-4-[1-(methoxyimino)ethyl]phenyl]-1H-pyrazol-3-yl]-2-methylphenyl]methyl]carbamate]	100%	100%			
COC(=O)NCc1cc(-c2ccn(-c3c(F)cc(C4CC4(F)F)cc3F)n2)ccc1C (stereo not shown) [Compound 89, methyl N-[[5-[1-[4-(2,2-difluorocyclopropyl)-2,6-difluorophenyl]-1H-pyrazol-3-yl]-2-methylphenyl]methyl]carbamate]	100%	100%			
CO/N=C(/C)c1cc(F)c(-n2ccc(-c3ccc(C)c(CNC(=O)OC)c3)n2)c(F)c1 [Compound 99, methyl (Z)-N-[[5-[1-[2,6-difluoro-4-[1-(methoxyimino)ethyl]phenyl]-1H-pyrazol-3-yl]-2-methylphenyl]methyl]carbamate]	100%	100%			
COC(=O)NCc1cc(-c2ccn(-c3c(F)cc(C4OCCCO4)cc3F)n2)ccc1C [Compound 134]			89%	100%	
CCC(C)c1cc(F)c(-n2ncc(-c3ccc(C)c(CNC(=O)OC)c3)n2)c(F)c1 (stereo not shown) [Compound 139, methyl N-[[5-[2-[2,6-difluoro-4-(1-methylpropyl)phenyl]-2H-1,2,3-triazol-4-yl]-2-methylphenyl]methyl]carbamate]	99%	100%			
COC(=O)NNc1cc(-c2ccn(-c3c(F)cccc3F)n2)ccc1C [Compound 154]	0%	25%			
COC(=O)NNc1cc(-c2ccn(-c3c(F)cc(C(C)C)cc3F)n2)ccc1C [Compound 155]	91%	100%			
COC(=O)NNc1cc(-c2ccn(-c3c(F)cc(C(F)(F)F)cc3F)n2)ccc1C [Compound 156]	85%	54%			
COC(=O)NCc1cc(-c2ccn(-c3c(F)cc(OCC(F)(F)F)cc3F)n2)ccc1C [compound 22]			99%	100%	
COC(=O)NCc1cc(-c2ccn(-c3c(F)cc(I)cc3SC)n2)ccc1C [compound 26]			73%	87%	
COC(=O)NCc1cc(-c2ccn(-c3c(F)cc(SC)cc3F)n2)ccc1C [compound 27]			99%	100%	
COC(=O)NCc1cc(-c2ccn(-c3c(F)cc(SC)cc3SC)n2)ccc1C [compound 28]			0%	100%	
COC(=O)NCc1cc(-c2ccn(-c3c(F)cc(OC)cc3OC)n2)ccc1C [compound 34]			28%	96%	
COC(=O)NCc1cc(-c2ccn(-c3c(C)cc([N+](=O)[O-])cc3C)n2)ccc1C [compound 35]			0%	0%	
CNc1cc(F)c(-n2ccc(-c3ccc(C)c(CNC(=O)OC)c3)n2)c(F)c1 [compound 36]			68%	100%	
COC(=O)NCc1cc(-c2ccn(-c3c(F)cc([N+](=O)[O-])cc3Cl)n2)ccc1C [compound 37]			26%	0%	
COC(=O)NCc1cc(-c2ccn(-c3c(C)cc(N)cc3C)n2)ccc1C [compound 38]			0%	0%	
COC(=O)NCc1cc(-c2ccn(-c3c(F)cc(N)cc3Cl)n2)ccc1C [compound 39]			0%	0%	
COC(=O)NCc1cc(-c2ccn(-c3c(C)cc(OC)cc3C)n2)ccc1C [compound 40]			0%	99%	
COC(=O)NCc1cc(-c2ccn(-c3c(Cl)cccc3Cl)n2)ccc1C [compound 44]			68%	100%	
COC(=O)NCc1cc(-c2ccn(-c3c(F)cccc3I)n2)ccc1C [compound 45]			0%	100%	
COC(=O)NCc1cc(-c2ccn(-c3c(F)cccc3Br)n2)ccc1C [compound 46]			68%	100%	
COC(=O)NCc1cc(-c2ccn(-c3c(F)cccc3Cl)n2)ccc1C [compound 47]			74%	100%	
COC(=O)NCc1cc(-c2ccn(-c3c(C)cc(Br)cc3C)n2)ccc1C [compound 48]			68%	99%	
COC(=O)NCc1cc(-c2ccn(-c3c(C)cc(Cl)cc3C)n2)ccc1C [compound 49]			68%	99%	

Compound	pest or weed control at 10 ppm ([1]; Rate 10 ppm)	pest or weed control at 10 ppm (Phakopsora pachyrhizi)	Test B disease control rating ([1]; Rate 10 ppm)	Test D disease control rating (Phakopsora pachyrhizi)	Test B disease control rating ([1]; Rate 2 ppm)
COC(=O)NCc1cc(-c2ccn(-c3c(F)cc(Br)cc3Cl)n2)ccc1C [compound 50]			100%	100%	
COC(=O)NCc1cc(-c2ccn(-c3c(F)cc(Cl)cc3Cl)n2)ccc1C [compound 51]			100%	100%	
COC(=O)NCc1cc(-c2ccn(-c3c(Br)cccc3I)n2)ccc1C [compound 52]			0%	99%	
COC(=O)NCc1cc(-c2ccn(-c3c(Cl)cc([N+](=O)[O-])cc3Cl)n2)ccc1C [compound 54]			0%	0%	
COC(=O)NCc1cc(-c2ccn(-c3c(Cl)cc(N)cc3Cl)n2)ccc1C [compound 55]			0%	0%	
COC(=O)NCc1cc(-c2ccn(-c3c(Cl)cc(Br)cc3Cl)n2)ccc1C [compound 56]			80%	100%	
COC(=O)NCc1cc(-c2ccn(-c3c(Cl)cc(Cl)cc3Cl)n2)ccc1C [compound 57]			74%	100%	
COC(=O)NCc1cc(-c2ccn(-c3c(Br)cccc3Br)n2)ccc1C [compound 58]			68%	100%	
COC(=O)NCc1cc(-c2ccn(-c3c(Cl)cccc3I)n2)ccc1C [compound 59]			45%	87%	
COC(=O)NCc1cc(-c2ccn(-c3c(Cl)cccc3Br)n2)ccc1C [compound 60]			68%	100%	
COC(=O)NCc1cc(-c2ccn(-c3c(C)cccc3Br)n2)ccc1C [compound 61]			68%	97%	
COC(=O)NCc1cc(-c2ccn(-c3c(F)cc(OCF)cc3F)n2)ccc1C [compound 73]			100%	100%	
COC(=O)NCc1cc(-c2ccn(-c3c(F)cc(C4(C)CC4)cc3F)n2)ccc1C [compound 74]			100%	100%	
COC(=O)NCc1cc(-c2ccn(-c3c(F)cc(CF)cc3F)n2)ccc1C [compound 77]			100%	100%	
COC(=O)NCc1cc(-c2cn(-c3c(F)cc(C)cc3F)nn2)ccc1C [compound 119]			100%	0%	
COC(=O)NCc1cc(-c2cn(-c3c(Cl)cc(OC)cc3OC)nn2)ccc1C [compound 120]			0%	0%	
COC(=O)NCc1cc(-c2cn(-c3c(Cl)cc(OC)cc3Cl)nn2)ccc1C [compound 123]			0%	0%	
COC(=O)NCc1cc(-c2cn(-c3c(C)cc(OC)cc3C)nn2)ccc1C [compound 124]			0%	0%	
COC(=O)NCc1cc(-c2cn(-c3c(F)cc(I)cc3F)nn2)ccc1C [compound 125]			68%	0%	
COC(=O)NCc1cc(-c2cn(-c3c(F)cc(Br)cc3F)nn2)ccc1C [compound 126]			57%	0%	
COC(=O)NCc1cc(-c2cn(-c3c(OC)cc(OC)cc3OC)nn2)ccc1C [compound 127]			0%	0%	
COC(=O)NCc1cc(-c2cn(-c3c(Br)cc(OC)cc3Br)nn2)ccc1C [compound 128]			0%	0%	
methyl N-[[5-[1-[2,6-dichloro-4-(1,1-dimethylethyl)phenyl]-1H-pyrazol-3-yl]-2-methylphenyl]methyl]carbamate [Compound 135]			86%		
methyl N-[[5-[1-[2,6-difluoro-4-(2-propyn-1-yloxy)phenyl]-1H-pyrazol-3-yl]-2-methylphenyl]methyl]carbamate [Compound 30]			98%		
methyl N-[[5-[2-[2,6-difluoro-4-(1-methylethyl)phenyl]-2H-1,2,3-triazol-4-yl]-2-methylphenyl]methyl]carbamate [Compound 108]					100%
